Assay results reported in patent publication US20230248744A1, “25-HYDROXYVITAMIN D2 AND/OR D3 FOR USE IN OBESITY” (CARBOGEN AMCIS B.V., priority 2020, published 2023).
Like-named read-outs stand apart in the source and are kept apart here.

Assay: Double-blind randomized crossover pharmacokinetic study, single oral 900 μg vitamin D3 or 25(OH)D3
Type: in vivo, human
Conditions: for Cmax / Tmax / concentration at 14 days / half-life / AUC: both sexes, human, in vivo, po, single oral 900 μg, mean ± SEM; for Cmax / Tmax / half-life / AUC: 900 ug; for concentration at 14 days: 900 μg, read-out: Ctrough (trough level at day 14); for half-life: read-out: T1/2 (elimination half-life) (converted); for blood level of vitamin D3 relative to Cmax: FIG. 4a, turning point after about 2% days, single oral 900 μg vitamin D3
Experimental: The conclusions as presented herein are based on the following experiments: In a double-blinded cross-over study single high dosages (900 μg total in two soft gel capsules containing 450 μg) of either vitamin D3 or 25(OH)D3 were administered to vitamin D-deficient volunteers including healthy controls as well as subjects with a history of malabsorption. At the outset, the BMI was determined. Blood samples were then taken at baseline and at 2, 4, 6, 8, and 12 hours as well as 1, 2, 3, 7, and 14 days after administration (FIG. 2). All the samples were analyzed for their contents in vitamin D3 per se as well as 25(OH)D3. […] In addition, peak levels were more rapidly reached with 25(OH)D3 than with vitamin D3 (see FIG. 5). The immediate increase in serum 25(OH)D3 compared to the delayed increase observed with vitamin D3 supports the concept that 25(OH)D3 is being rapidly absorbed from the small intestine into the portal circulation, whereas vitamin D3 first needs to be incorporated into the chylomicrons which are absorbed into the lymphatic system.
The pharmacokinetic parameters of orally administered 25(OH)D3 and vitamin D3 (both provided for formulation in form of visually identical soft-gel pills) were studied based on the corresponding serum concentration-time curves in healthy adults and adults with a history of intestinal malabsorption (see FIG. 2). Cinical safety has been evaluated by monitoring serum calcium, phosphorus, parathyroid hormone (PTH) and 25(OH)D levels at the beginning and end of the study. Furthermore, the distribution of supplemented 25(OH)D3 (or 25(OH)D2) into adipose tissue and the role it is playing there was also studied.
Serum levels of calcium, phosphorus, albumin, creatinine and intact parathyroid hormone (iPTH) were determined at baseline and at the end of each 14-day pharmacokinetic study (see Table 4). The pharmacokinetic parameters have been determined by evaluating the serum concentration-time curves in patients with malabsorption syndrome and healthy controls (Tables 5 and 6).
The primary outcomes of the study are the serum pharmacokinetic parameters of 25(OH)D3 and vitamin D3 after a single oral administration of 900 μg of each in a double-blind randomized crossover study.
Adult patients (18 years and older) with a history of intestinal malabsorption (n=10) and healthy adult volunteers (n=10); (of both sexes and all ethnicities) has been recruited in this randomized double-blinded crossover study. The BMI has been determined and recorded at baseline. All subjects have been prescreened for 25(OH)D levels to include subjects with 25(OH)D<30 ng/mL. The subjects have been randomized to receive two oral doses of 450 μg taken simultaneously (total 900 μg) of either vitamin D3 or 25(OH)D3. Blood samples were taken at baseline and at 2, 4, 6, 8, 12 hours and days 1, 2, 3, 7 and 14. There was a two weeks washout period before the subject received in a double blinded manner, two oral doses of 450 μg taken simultaneously (total 900 μg) of either 25(OH)D3 or vitamin D3 (depending on which one they took in the randomization) any time after the 2 week washout. Blood samples were taken at baseline and at 2, 4, 6, 8, 12 hours and days 1, 2, 3, 7 and 14 days. Serum levels of calcium, phosphorus, albumin, creatinine, and intact parathyroid hormone (iPTH) were obtained at baseline and at day 14 for each arm (or within a reasonable time if the study participant was unable to come on the exact day).
The individuals participating in the study had, after signing a consent form, been randomized by a computer randomization chart in a blinded manner to receive two oral doses of 450 μg taken simultaneously (total 900 μg) of either vitamin D3 or 25(OH)D3. Blood samples have been taken at baseline and at 2, 4, 6, 8, 12 hours and days 1, 2, 3, 7 and 14. […]

[1] = healthy participants with higher BMI (N = 5)
[2] = healthy participants with lower BMI (N = 5)
[3] = patients with fat malabsorption (N = 6)

Question: With `C=C1CC[C@H](O)C/C1=C/C=C1\CCC[C@]2(C)[C@@H]([C@H](C)CCCC(C)C)CC[C@@H]12` [vitamin D3, cholecalciferol] as the molecule, how does the “time at which the peak of the serum concentration is reached” value (FIG. 5, oral 900 μg) read?
Answer: about 12 hours

Question: What about the “bioavailability in subjects with a history of vitamin D/fat malabsorption” value (after administration of the respective product, FIGS. 3a and b) of the same molecule?
Answer: reduced

Question: What about the Cmax (healthy participants (N = 10)) of the same molecule?
Answer: 53.5 ± 6 ng/mL

Question: And the Tmax (healthy participants (N = 10))?
Answer: 10.4 ± 0.7 h

Question: And the concentration at 14 days (healthy participants (N = 10))?
Answer: 0.3 ± 0.3 ng/mL

Question: And the half-life (healthy participants (N = 10))?
Answer: 31.4 ± 3.3 h

Question: And the AUC (healthy participants (N = 10), serum level of the administered substance)?
Answer: 3260 ± 496 ng·h/mL

Question: And the AUC [1]?
Answer: 2090 ± 547 ng·h/mL

Question: And the Cmax [1]?
Answer: 44.4 ± 9.3 ng/mL

Question: What about the Tmax [1] of the same molecule?
Answer: 9.6 ± 1 h

Question: What about the concentration at 14 days [1] of the same molecule?
Answer: 0 ng/mL

Question: What about the half-life [1] of the same molecule?
Answer: 23.8 ± 3.1 h

Question: What about the AUC [2] of the same molecule?
Answer: 4430 ± 350 ng·h/mL

Question: What about the Cmax [2] of the same molecule?
Answer: 62.6 ± 5.7 ng/mL

Question: And the Tmax [2]?
Answer: 11.2 ± 0.8 h

Question: What about the concentration at 14 days [2] of the same molecule?
Answer: 0.6 ± 0.6 ng/mL

Question: And the half-life [2]?
Answer: 39 ± 3.4 h

Question: What about the Cmax [3] of the same molecule?
Answer: 24.3 ± 8.4 ng/mL

Question: What about the Tmax [3] of the same molecule?
Answer: 11.3 ± 0.7 h

Question: And the concentration at 14 days [3]?
Answer: 0.1 ± 0.1 ng/mL

Question: What about the half-life [3] of the same molecule?
Answer: 28.7 ± 1.5 h

Question: What about the AUC (patients with fat malabsorption (N = 6), serum level of the administered substance) of the same molecule?
Answer: 1180 ± 425 ng·h/mL

Question: What about the “blood level of vitamin D3 relative to Cmax” value (high BMI subjects) of the same molecule?
Answer: ≈ 23 % of Cmax

Question: What about the “blood level of vitamin D3 relative to Cmax” value (low BMI (normal) subjects) of the same molecule?
Answer: 41 % of Cmax and ≈ 41 % of Cmax
